Ends that are not written are not given here.
What was measured:
[1] = test system: human red blood cells; details: pH 7.4
[2] = test system: HEK293T cells; details: for CC50 vs HEK293T cells (source data of Figure 4a): 24 h
[3] = test system: P. aeruginosa PAO1; details: PAO1, 24 h
[4] = test system: E. faecium ATCC 700221 - VRE; details: ATCC 700221, 24 h
[5] = test system: P. aeruginosa PA14; details: PA14, 24 h
[6] = test system: A. baumannii ATCC 19606; details: ATCC 19606, 24 h
[7] = test system: E. coli ATCC 11775; details: ATCC 11775, 24 h
[8] = test system: E. coli AIC221; details: AIC221, 24 h

Molecule | HC50 [1] | SIcytotoxicity [2] | Minimal Inhibitory Concentration, P. aeruginosa PAO1 (-) [3] [µmol/L] | Minimal Inhibitory Concentration, E. faecium ATCC 700221 - VRE (+) [4] [µmol/L] | Minimal Inhibitory Concentration, P. aeruginosa PA14 (-) [5] [µmol/L] | CC50 vs HEK293T cells [2] [µM] | CC50 vs HEK293T cells (source data of Figure 4a) [2] [µM] | Minimal Inhibitory Concentration, A. baumannii ATCC 19606 (-) [6] [µmol/L] | Minimal Inhibitory Concentration, E. coli ATCC 11775 (-) [7] [µmol/L] | Minimal Inhibitory Concentration, E. coli AIC221 (-) [8] [µmol/L]
CC(C)C[C@H](NC(=O)[C@H](Cc1ccccc1)NC(=O)CNC(=O)[C@H](CCCNC(=N)N)NC(=O)[C@H](CCCNC(=N)N)NC(=O)[C@H](CCC(N)=O)NC(=O)[C@H](Cc1c[nH]c2ccccc12)NC(=O)[C@H](CC(C)C)NC(=O)[C@@H]1CCCN1C(=O)[C@H](CO)NC(=O)[C@H](C)NC(=O)[C@H](CCCNC(=N)N)NC(=O)CNC(=O)[C@H](CCCNC(=N)N)NC(=O)[C@@H](N)CCCCN)C(=O)N[C@@H](CO)C(=O)N[C@@H](CCCCN)C(=O)N[C@@H](CC(C)C)C(=O)N[C@@H](CCCCN)C(=O)N[C@@H](C)C(=O)N[C@@H](CCCNC(=N)N)C(=O)N[C@@H](C)C(=O)N[C@@H](CCCCN)C(=O)N[C@@H](CCCNC(=N)N)C(=O)N[C@@H](CC(N)=O)C(=O)NCC(=O)N[C@@H](C)C(=O)N[C@@H](Cc1ccccc1)C(=O)N[C@@H](Cc1c[nH]cn1)C(=O)N[C@@H](CC(C)C)C(=O)N1CCC[C@H]1C(=O)N[C@@H](CCCNC(=N)N)C(=O)O [Conoserver-7] | 1.085e+083 | 2.5 | 64 | 32 |  |  |  |  |  | 
ARKFKWGKLFSAGKKLLKKAKKLSKNK [Arachnoserver-11] | 1118.0 | 2.2 | 8 | 8 | 8 | 9 | 8.722 | 64 | 32 | 4
FIKKLWRSKLAKKLRAKGRELLK [UniprotKB-17] | 4.224e+042 | 3.9 | 8 | 16 | 16 |  | 30.97 | 32 | 16 | 16
FLKKIWRSKLVKRL [UniprotKB-9] | 219457.0 | 1.3 |  |  | 16 | 20 | 20.18 |  |  | 
GKWLISSLVAKHL [UniprotKB-6] | 686.0 | 0.3 |  |  |  | 19 | 19.46 |  |  | 
KKQIRLYLLKYYGKKSSSKSVRKIVISK [Arachnoserver-20] | 896.7 | 2.8 |  | 32 |  |  |  |  |  | 
KKWRELSRLSRVLQIL [Conoserver-14] | 1826.0 | 7.3 | 64 | 32 |  |  |  | 16 | 16 | 8
KLHGLLTRRSLKNFWKRNLYLR [Conoserver-6] | 66.3 | 7.9 | 16 | 32 | 32 |  | 31.74 | 32 | 64 | 4
KLWNSKLARKIRTKGLKYVKNFAK [UniprotKB-3] | 8.23e+034 | 1.5 |  | 32 |  |  | 11.61 |  |  | 
KQKYLIKRSRAKMQNHKLFKLTKR [Conoserver-16] | 1.085e+083 | 1.5 |  | 64 |  |  |  |  |  | 
KRKGYLRLVPEERIWQKGLWWLRRLETDSDKLQK [ISOB-3] | 1.085e+083 |  |  |  |  |  |  |  |  | 
KRLKGFAKKLWNSKLARKIRTKGLKYVKNFAK [UniprotKB-7] | 207.9 | 3.7 |  | 8 |  |  | 14.78 |  |  | 
KRRRASPLWKRRRFLSMLKARAK [Conoserver-2] | 1570.0 | 3.6 | 64 | 32 |  |  |  |  |  | 
KRRRASPLWKRRRFLSMLKARAK [UniprotKB-10] | 627.2 | 1.3 |  | 32 |  |  | 43.12 |  |  | 
KWGKLFSAGKKLLKKAKKL [Arachnoserver-4] | 1.085e+083 | 2.4 | 8 | 16 | 16 | 20 | 19.57 | 64 | 32 | 16
KWLGKLGVILSHL [UniprotKB-15] | 1.374e+045 | 1.4 |  | 64 |  |  | 45.97 | 64 | 32 | 32
LRAKMLNSKFIKL [Conoserver-5] | 1.085e+083 |  |  |  |  |  |  |  |  | 
LTKWLGKLGVIL [UniprotKB-11] | 146.7 | 4.4 |  |  |  |  |  |  |  | 
PLWKRRRFLSMLKARAKR [Conoserver-4] | 707.7 | 2.6 | 64 | 32 |  |  |  |  |  | 
QPRRVKRFKKFFKKLKNSVKKRAKKF [ISOB-7] | 569.0 | 4.0 | 64 | 32 |  |  |  |  |  | 64
RFGSFLKKVWKSKLAKKL [UniprotKB-20] | 18147.0 | 6.6 | 8 | 8 | 16 |  | 52.53 | 64 | 32 | 16
RHRIVRTYIAKFGLK [ISOB-2] | 1.085e+083 | 7.5 |  | 32 |  |  |  |  |  | 64
RKFKWGKLFSTAKKLYKKGKKLSK [UniprotKB-16] | 2082.0 | 5.9 | 4 | 32 | 4 |  | 23.72 | 32 | 8 | 4
RKRRRFISMLKARAKRR [Conoserver-15] | 1.085e+083 | 0.7 |  | 32 |  |  | 22.52 |  |  | 
RLRAKMRNSKLFKLTKR [Conoserver-10] | 1.085e+083 |  |  |  |  |  |  |  |  | 
RQEYPTKRLRAKMLNSKFIKLIKR [Conoserver-12] | 1.085e+083 | 5.8 |  | 16 |  |  |  |  |  | 32
RRASPLWKRRRFLSMLKARAKRTGYK [Conoserver-3] | 459.2 | 6.0 | 64 | 32 |  |  |  |  |  | 64
RRVKRFKKFFKKL [ISOB-6] | 1.085e+083 | 6.5 | 32 | 32 | 64 |  |  |  |  | 
RRVKRFKKFFMKL [UniprotKB-18] | 1.827e+053 | 3.1 | 32 | 32 |  |  |  |  |  | 64
SFKKILSAGKKLFKKAKKL [Arachnoserver-29] | 1.085e+083 | 4.3 | 16 | 16 | 16 |  | 17.1 |  | 16 | 4

Reference: paper PMC12254355 (Nature Communications, 2025)
